In general, IC50 refers to the concentration that inhibits the measured activity by half.

This test deals with washed platelet. As to the kind of experiment: Effect on platelet aggregation (washed platelets stimulated with thrombin or platelet-activating factor, Born method). In kind it is cell-based, white rabbit. The note with it: for IC50: Oryctolagus cuniculus, 0.05 h, 3 min incubation, 37° C. As to the method:
8.5 vol of blood was collected from the carotid arteries of a white rabbit, and placed in a tube containing 1.5 vol of a citrate-dextrose solution (71 mM citric acid, 85 mM sodium citrate and 111 mM dextrose). The thus obtained blood was centrifuged at 200 xg for 15 minutes to obtain platelet-rich plasma (PRP). This PRP was centrifuged at 650×g for 10 minutes to obtain platelet precipitates. After washing with Ca^++ -free Tyrode's solution containing 2 mM ethylenebis(oxyethylenenitrilo)tetraacetic acid (hereinafter referred to as EGTA), the platelet precipitates were centrifuged again at 650×g for 10 minutes for washing. The resulting platelet precipitates were suspended in Ca^++ -free Tyrode's solution containing 0.25% bovine serum albumin to reach a density of 5×10^8 cells/ml. After allowing to stand for about 30 minutes, 1 mM CaCl2 or 1 mM EGTA was added to the suspension of the washed platelet. The mixture was allowed to stand for further 30 minutes, and then platelet aggregation was measured.
The platelet aggregation was measured with an aggregometer, ACGRETEC TE-500 (product of Erma Optical Co., Ltd.) to which the Born method was applied.
First, 10 μl portions of a test compound solution were added to 0.2 ml portions of the suspension of the washed platelet, while stirring at 1,000 rpm and at 37° C. After incubation at 37° C. for 3 minutes, 10 μl portions of a stimulating agent thrombin (final concentration : 0.05 U/ml) or platelet-activating factor (final concentration: 10^-10 M) were added thereto, respectively to initiate the reaction. The rate of platelet aggregation inhibition of the test compound were calculated from the maximum aggregation rate obtained by the use of the test compound and the maximum aggregation rate obtained by use of only the solvent used for dissolving the test compound, according to the following equation. The effect of the test compound was determined as the drug concentration which gave the inhibition rate of 50%. [formula] A: maximum aggregation rate in use of the solvent alone B: maximum aggregation rate in use of the test compound

Converted amounts (≈) assume the structure as drawn. Like-named read-outs stand apart in the source and are kept apart here.

On to `CCCCCCCc1cc(O)cc(OC(=O)c2c(O)cc(O)cc2CCCCCCC)c1` [Compound 4], for which the concentration for half-maximal inhibition (IC50) (stimulating agent platelet-activating factor, final concentration 10^-10 M, read-out: IC50 (platelet aggregation inhibition, stimulating agent platelet-activating factor)) worked out at 45 µg/mL (≈ 102 µM) and the IC50 (Platelet, stimulating agent thrombin, final concentration 0.05 U/ml, read-out: IC50 (platelet aggregation inhibition, stimulating agent thrombin)) was 72 µg/mL (≈ 163 µM). The “inhibition of platelet aggregation, in words” value (stimulated with thrombin and platelet-activating factor) is reported as “inhibited platelet aggregation”.

For the origin of these results see patent publication US5004833A, “KS-501 derivatives” (Kyowa Hakko Kogyo Co., Ltd., priority 1988, dated 1991).
